# Active and inactive are the calls of the source. No cut-off for these calls is given here.
# System: Plasmodium falciparum
# Assay: Antiplasmodial activity against ring stage Plasmodium falciparum 3D7A infected in erythrocytes incubated for 24 hrs prior to [3H]hypoxanthine incorporation measured after 24 hrs
# Format: functional, organism-based
# Conditions: not given
row,Structure (SMILES),IC50 [nM]
1,CCC(C)(C)N[C@@H](C)[C@@H](O)c1ccc(C(F)(F)F)cc1,1400
2,CCC(C)(C)N[C@@H](C)[C@@H](O)c1ccc(Cl)c(Cl)c1,500
3,C[C@H](NC(C)(C)C)[C@@H](O)c1ccc(Cl)c(C(F)(F)F)c1,600
4,CCC(C)(C)N[C@@H](C)[C@@H](O)c1ccc(C(F)(F)F)cc1 (racemic) [listing 1 of 2 here],400
5,CCC(C)(C)N[C@@H](C)[C@@H](O)c1ccc(Cl)c(Cl)c1 (racemic),200

# Same assay, conditions: Plasmodium falciparum, 3D7A
row,Structure (SMILES),IC50 [nM]
1,CCC(C)(C)N[C@H](C)[C@H](O)c1ccc(C(F)(F)F)cc1,500
2,C[C@@H](NC(C)(C)C)[C@H](O)c1ccc(Cl)c(C(F)(F)F)c1,300
3,CCC(C)(C)N[C@H](C)[C@H](O)c1ccc(Cl)c(Cl)c1,400
4,CC(NC(C)(C)C)C(O)c1ccccc1 (racemic),> 5000
5,C[C@H](NC(C)(C)C)[C@H](O)c1ccc(Cl)c(Cl)c1 (racemic),> 5000
6,CC(C)(C)NCC(O)c1ccc(Cl)c(Cl)c1 (racemic),> 5000
7,OC(CNCc1ccccc1)c1ccc(Cl)c(Cl)c1 (racemic),700
8,Cc1ccc2ccccc2c1CNCC(O)c1ccc(Cl)c(Cl)c1 (racemic),> 5000
9,CCC(C)(C)N[C@@H](C)[C@H](O)c1ccc(C(F)(F)F)cc1 (racemic),> 5000
10,CCC(C)(C)N[C@@H](C)[C@H](O)c1ccc(Cl)c(Cl)c1 (racemic),3900
11,C[C@H](NC(C)(C)C)[C@@H](O)c1ccc(Cl)c(Cl)c1 (racemic),900
12,C[C@H](NC(C)(C)C)[C@@H](O)c1ccc(Cl)c(C(F)(F)F)c1 (racemic) [listing 1 of 2 here],500
13,OC(CNC1CCCCCCC1)c1ccc(Cl)c(Cl)c1 (racemic),70
14,OC(CNC1CCCCCC1)c1ccc(Cl)c(Cl)c1 (racemic),160
15,CC(NC(C)(C)C)C(O)c1ccc(Cl)c(C(F)(F)F)c1 (racemic),4300
16,OC(CNC1CCCCC1)c1ccc(Cl)c(Cl)c1 (racemic),720
17,C[C@H](N)[C@@H](O)c1ccc(C(F)(F)F)cc1 (relative stereo),> 5000
18,CCC(C)(C)N(C)[C@@H](C)[C@@H](O)c1ccc(C(F)(F)F)cc1 (relative stereo),> 5000
19,C[C@H](Nc1ccccc1)[C@@H](O)c1ccc(C(F)(F)F)cc1 (relative stereo),5000
20,C[C@H](NC1CCCCC1)[C@@H](O)c1ccc(C(F)(F)F)cc1 (relative stereo),5000

# System: not listed separately
# Assay: Inhibition of beta-hematin formation up to 100 uM
# Conditions: not given
row,Structure (SMILES),inhibition
1,CCC(C)(C)N[C@@H](C)[C@@H](O)c1ccc(C(F)(F)F)cc1 (racemic) [listing 2 of 2 here],inactive
2,C[C@H](NC(C)(C)C)[C@@H](O)c1ccc(Cl)c(C(F)(F)F)c1 (racemic) [listing 2 of 2 here],inactive

# System: Plasmodium berghei
# Assay: Antiplasmodial activity against Plasmodium berghei infected in po dosed mouse assessed as reduction in parasitemia administered qd for 2 days relative to vehicle-treated control
# Format: functional
# Conditions: not given
row,Structure (SMILES),inhibition (INH) [%]
1,CCC(C)(C)N[C@@H](C)[C@@H](O)c1ccc(C(F)(F)F)cc1 (racemic) [listing 1 of 2 here],64
2,C[C@H](NC(C)(C)C)[C@@H](O)c1ccc(Cl)c(C(F)(F)F)c1 (racemic) [listing 1 of 2 here],76

# System: not listed separately
# Assay: Inhibition of beta-hematin formation
# Conditions: not given
row,Structure (SMILES),IC50 [nM]
1,"O[C@@H](c1cc(C(F)(F)F)nc2c(C(F)(F)F)cccc12)[C@H]1CCCCN1 (relative stereo) [(S,R)-MEFLOQUINE]",12200

# — ChEMBL document CHEMBL3297665, “Case Study of Small Molecules As Antimalarials: 2-Amino-1-phenylethanol (APE) Derivatives” (ACS Med Chem Lett, 2014)
